How the values were obtained:
[1] = target: T1, TAPL (Homo sapiens, UniProt Q9NP78); conditions: GTP vs ATP; cited from earlier work
T1 construct: Human coreTAPL (Q9NP78 UniProt, amino acid 143–766) fused C-terminally to mVenus; made in house; host or cells: Pichia pastoris SMD1168-His+
T1 sequence (Q9NP78 143-766): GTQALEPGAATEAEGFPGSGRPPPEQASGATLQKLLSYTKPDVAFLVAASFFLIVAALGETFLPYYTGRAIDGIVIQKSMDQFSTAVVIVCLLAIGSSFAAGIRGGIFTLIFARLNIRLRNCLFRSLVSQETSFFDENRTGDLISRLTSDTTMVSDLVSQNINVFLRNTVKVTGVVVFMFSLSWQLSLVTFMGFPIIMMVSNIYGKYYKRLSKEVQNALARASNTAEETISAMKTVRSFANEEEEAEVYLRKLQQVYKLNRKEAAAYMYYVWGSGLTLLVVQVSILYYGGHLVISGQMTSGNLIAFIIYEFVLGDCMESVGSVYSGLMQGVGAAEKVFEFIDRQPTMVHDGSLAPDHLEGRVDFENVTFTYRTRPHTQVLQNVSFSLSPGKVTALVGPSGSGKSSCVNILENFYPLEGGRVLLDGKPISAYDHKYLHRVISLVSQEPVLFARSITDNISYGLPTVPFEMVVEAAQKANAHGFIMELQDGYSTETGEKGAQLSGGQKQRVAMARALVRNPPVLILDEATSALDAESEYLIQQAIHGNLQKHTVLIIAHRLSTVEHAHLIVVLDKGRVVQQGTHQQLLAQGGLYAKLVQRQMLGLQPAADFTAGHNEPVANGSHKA
From the text: To decipher the coupling between nucleotide hydrolysis and peptide transport, we intended to reduce futile hydrolysis cycles without translocating peptides. Assuming a kinetic effect where ATP binding and subsequent ATP hydrolysis is much faster than peptide binding, a more stoichiometric coupling should be obtained with decreasing ATP concentrations. Therefore, we determined Michaelis-Menten kinetics of nucleotide hydrolysis and peptide transport with decreasing nucleotide concentrations. For sensitivity reasons, we switched from the colorimetric malachite green based assay to a radioactive b ...

[2] = test system: PatA/PatB; conditions: transport and NTP hydrolysis, 37 °C; cited from earlier work
From the text: Both nucleotides show the same Km and kcat values in respect of NTP hydrolysis. […] NTP dependent transport was found also for other ABC transporters. […] The full-length ABC transport Pdr5 from yeast hydrolyzes GTP and even UTP, but ...

[3] = target: TmrAB (Thermus thermophilus, UniProt Q72J04+Q72J05); assay: NTP dependent peptide transport by TmrAB; conditions: 68 °C, 9-mer^FL peptide
[4] = test system: P-gp; conditions: cited from earlier work
From the text: Other ABC transporters like P-glycoprotein have a biphasic substrate dependent ATPase activity. […] Basal ATPase activity of MRP1 is 3-fold stimulated by its substrate leucotriene C4, which forms contacts to both halfs o ...

| Compound | fuelling of peptide transport vs ATP (in words) [1] | nucleotide preference of PatA/PatB (in words) [2] | fold decreased transport rate for GTP compared to ATP, TmrAB [3] | effect on P-gp transport and ATP hydrolysis (in words) [4] |
| --- | --- | --- | --- | --- |
| Nc1nc2c(ncn2[C@@H]2O[C@H](COP(=O)(O)OP(=O)(O)OP(=O)(O)O)[C@@H](O)[C@H]2O)c(=O)[nH]1 [GTP] | to a lower extend than ATP | strongly prefers GTP over ATP | 6 fold |  |
| O[C@@H](COc1cccc2ncccc12)CN1CCN([C@@H]2c3ccccc3[C@@H]3[C@H](c4ccccc42)C3(F)F)CC1 [Zosuquidar] |  |  |  | inhibits transport but stimulates ATP hydrolysis |

— paper PMC6695453, “Peptide translocation by the lysosomal ABC transporter TAPL is regulated by coupling efficiency and activation energy” (Scientific Reports, 2019)
